Experiments:
[1] = test system: Cricetinae gen. sp.; test: The compound was evaluated for its ability to inhibit the human neutrophil elastase-induced lung hemorrhage in hamster by intravenous bolus administration of 30 mg/Kg dose; assay type: functional, Cricetulus griseus
[2] = test system: Cricetinae gen. sp.; test: The compound was evaluated for its ability to inhibit the human neutrophil elastase-induced lung hemorrhage in hamster by intravenous bolus administration of 100 mg/Kg dose; assay type: functional, Cricetulus griseus
[3] = target: T1, Neutrophil elastase (Homo sapiens, UniProt P08246); test: In vitro inhibition of the human neutrophil elastase-catalyzed hydrolysis of the synthetic substrate Suc-Ala-Pro-Ala-MCA
T1 sequence (P08246 whole entry): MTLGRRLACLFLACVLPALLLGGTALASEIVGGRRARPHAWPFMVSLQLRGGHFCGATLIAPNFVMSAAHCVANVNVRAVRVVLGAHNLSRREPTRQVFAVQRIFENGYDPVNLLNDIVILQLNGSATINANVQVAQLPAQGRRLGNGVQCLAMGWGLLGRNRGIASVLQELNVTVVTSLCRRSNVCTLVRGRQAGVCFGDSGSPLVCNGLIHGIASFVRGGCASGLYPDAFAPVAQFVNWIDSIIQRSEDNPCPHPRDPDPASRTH

[4] = test system: Cricetinae gen. sp.; test: The compound was evaluated for its ability to inhibit the HNE-induced lung hemorrhage in hamster by intravenous bolus administration of 10 mg/Kg dose; assay type: functional, Cricetulus griseus
[5] = test system: Cricetinae gen. sp.; test: The compound was evaluated for its ability to inhibit the human neutrophil elastase-induced lung hemorrhage in hamster by intravenous bolus administration of 10 mg/Kg dose; assay type: functional, Cricetulus griseus
[6] = test system: Cricetinae gen. sp.; test: The compound was evaluated for its ability to inhibit the human neutrophil elastase-induced lung hemorrhage in hamster by intravenous bolus administration of 30 mg/kg dose; assay type: functional, Cricetulus griseus
[7] = test system: Cricetinae gen. sp.; test: The compound was evaluated for its ability to inhibit the human neutrophil elastase-induced lung hemorrhage in hamster by intravenous bolus administration of 10 mg/kg dose; assay type: functional, Cricetulus griseus

SMILES | IC50 [3] | inhibition in vivo at 30 mg/kg [1] | further results
CC(C)[C@H](NC(=O)[C@@H]1CCCN1C(=O)[C@H](NC(=O)COc1ccc(OCC(=O)O)cc1)C(C)C)C(=O)c1nc2ccccc2o1 |  | 56% | inhibition in vivo at 100 mg/kg [2]: 98%
CCCCC(Oc1cccc2oc(C(=O)[C@@H](NC(=O)OCc3ccccc3)C(C)C)nc12)c1ccccc1 (stereo not given in full) | > 10000 nM |  | 
CC(C)[C@H](NC(=O)OCc1ccccc1)C(=O)c1nc2ccccc2o1 | > 10000 nM |  | 
CCCCCOc1cccc2oc(C(=O)[C@@H](NC(=O)OCc3ccccc3)C(C)C)nc12 | > 10000 nM |  | 
CC(C)[C@H](NC(=O)OCc1ccccc1)C(=O)c1nc2c(OCc3ccccc3)cccc2o1 | > 10000 nM |  | 
CC(C)[C@H](NC(=O)OCc1ccccc1)C(=O)c1nc2c(OCC(N)=O)cccc2o1 | > 10000 nM |  | 
CC(C)[C@H](NC(=O)OCc1ccccc1)C(=O)c1nc2c(O)cccc2o1 | > 10000 nM |  | 
CC(C)CCOc1cccc2oc(C(=O)[C@@H](NC(=O)OCc3ccccc3)C(C)C)nc12 | 7800 nM |  | 
COC(=O)COc1cccc2oc(C(=O)[C@@H](NC(=O)OCc3ccccc3)C(C)C)nc12 | > 10000 nM |  | 
CC(C)[C@H](NC(=O)OCc1ccccc1)C(=O)c1nc2c(OCc3cccc(C(F)(F)F)c3)cccc2o1 | > 10000 nM |  | 
CC(C)=CCOc1cccc2oc(C(=O)[C@@H](NC(=O)OCc3ccccc3)C(C)C)nc12 | > 10000 nM |  | 
CC(C)[C@H](NC(=O)OCc1ccccc1)C(=O)c1nc2c(OCC(=O)O)cccc2o1 | > 10000 nM |  | 
CCOc1cccc2oc(C(=O)[C@@H](NC(=O)OCc3ccccc3)C(C)C)nc12 | > 10000 nM |  | 
CC(C)[C@H](NC(=O)OCc1ccccc1)C(=O)c1nc2c(OCCN(C)C)cccc2o1 | > 10000 nM |  | 

Continued, in another order:

IC50 [3] | SMILES | inhibition in vivo at 30 mg/kg [1] | further results
130 nM | CC(C)[C@H](NC(=O)COc1ccc(OCC(=O)O)cc1)C(=O)c1nc2c(OC(=O)C(C)(C)C)cccc2o1 | 13% | inhibition in vivo at 100 mg/kg [2]: 74%
13 nM | CC(C)[C@H](NC(=O)[C@@H]1CCCN1C(=O)[C@@H](NC(=O)COC(=O)c1ccc(OCC(=O)O)cc1)C(C)C)C(=O)c1nc2ccccc2o1 | 75% | inhibition in vivo at 10 mg/kg [4]: 12%
72 nM | CC(C)[C@H](NC(=O)[C@@H]1CCCN1C(=O)[C@@H](NC(=O)/C=C/C(=O)O)C(C)C)C(=O)c1nc2ccccc2o1 |  | 
290 nM | CC(C)CCOc1cccc2oc(C(=O)[C@@H](NC(=O)[C@H]3CCCN3C(=O)COc3ccc(OCC(=O)O)cc3)C(C)C)nc12 | -16% | inhibition in vivo at 100 mg/kg [2]: 99%
3.5 nM | CC(C)[C@H](NC(=O)[C@@H]1CCCN1C(=O)[C@@H](NC(=O)COc1ccc(SCC(C)(C)C(=O)O)cc1)C(C)C)C(=O)c1nc2ccccc2o1 |  | inhibition in vivo at 10 mg/kg [5]: 30%; inhibition in vivo at 100 mg/kg [2]: 99%; inhibition in vivo at 30 mg/kg [6]: 86%
33 nM | CC(C)[C@H](NC(=O)[C@@H]1CCCN1C(=O)[C@@H](NC(=O)CNC(=O)c1ccc(OCC(=O)O)cc1)C(C)C)C(=O)c1nc2ccccc2o1 |  | inhibition in vivo at 30 mg/kg [6]: 99%; inhibition in vivo at 10 mg/kg [7]: 46%
280 nM | CC(C)[C@H](NC(=O)[C@@H]1CCCN1C(=O)[C@@H](NC(=O)N[C@H](C)C(=O)O)C(C)C)C(=O)c1nc2ccccc2o1 | 39% | 
230 nM | CC(C)[C@H](NC(=O)[C@H]1CCCN1C(=O)COc1ccc(OCC(=O)O)cc1)C(=O)c1nc2c(OC(=O)C(C)(C)C)cccc2o1 | 66% | inhibition in vivo at 100 mg/kg [2]: 96%
7.2 nM | CC(C)[C@H](NC(=O)[C@@H]1CCCN1C(=O)[C@@H](NC(=O)COc1ccccc1OCC(=O)O)C(C)C)C(=O)c1nc2ccccc2o1 | 48% | inhibition in vivo at 10 mg/kg [5]: 37%; inhibition in vivo at 100 mg/kg [2]: 90%
7.4 nM | CC(C)[C@H](NC(=O)[C@@H]1CCCN1C(=O)[C@@H](NC(=O)c1ccc(OCC(=O)O)cc1)C(C)C)C(=O)c1nc2ccccc2o1 | 60% | inhibition in vivo at 10 mg/kg [5]: 15%
450 nM | CC(C)[C@H](NC(=O)OCc1ccccc1)C(=O)c1nc2c(OC(=O)C(C)(C)C)cccc2o1 |  | 
66 nM | CC(C)[C@H](NC(=O)[C@@H]1CCCN1C(=O)[C@@H](NC(=O)CCC(=O)O)C(C)C)C(=O)c1nc2ccccc2o1 | 61% | 
8.9 nM | CC(C)[C@H](NC(=O)[C@@H]1CCCN1C(=O)[C@@H](NC(=O)COc1ccc(OCC(=O)O)cc1)C(C)C)C(=O)c1nc2c(OC(=O)C(C)(C)C)cccc2o1 | 73% | inhibition in vivo at 100 mg/kg [2]: 99%

Reference: ChEMBL document CHEMBL1135060, “Design and synthesis of peptide-based carboxylic acid-containing transition-state inhibitors of human neutrophil elastase” (Bioorg Med Chem Lett, 2002)
